Experimental data: PMC3836617 (Pharmaceutics, 2013)
“And” between values parts separate entries of the source, which are not always exact repeats. Equal entries are not always repeated. Where two headings read alike, the source gives them in different places. Values belong to the compound of their own block, whether it stands above or below them.

How the values were obtained:
[1] = for Permeated amount after 12 h: full-thickness skin preincubated with 2 mM BNPP 1 h
Experimental: (§3) Fresh excised abdominal skin was used for these experiments. To strip skin, stratum corneum was removed by 20 successive strippings using cellophane adhesive tape (Nichiban K.K., Japan) according to conventional methods. The excised skin was mounted between half-cells with the dermal side in contact with receptor fluid (pH 6.8 phosphate-buffered saline (PBS) with 3% BSA). Receptor fluid flow rate was 5 mL/h. Two milliliters of drug suspension (drug amount = twice the amount required for saturation) in pH 4.0 acetate buffer was added to the donor chamber.
In an inhibition study for CES, skin mounted between the half-cells was preincubated with the dermal side in contact with 2 mM BNPP (dissolved in pH 6.8 PBS containing 3% BSA) for 1 h.
(§4) The in vitro permeation parameters were calculated from the penetration data using the following equations: Js = (KmDC)/δ = KpC and τ = δ^2/6D, where Js is steady state flux, Km is the solvent membrane partition coefficient of drug, D is diffusion coefficient, C is drug concentration in donor chamber, δ is thickness of rat skin, Kp is the permeability coefficient of drug, and τ represents lag time.

[2] = Hydrolysis in rat skin S9 fraction; assay type: in vitro ADME; conditions: for Hydrolysis in skin S9 relative to liver microsomes (slower) / Vmax in skin S9 relative to liver microsomes (smaller) / Vmax/Km in skin S9 relative to liver microsomes (smaller): skin S9 vs liver microsomes
Experimental: After hair was carefully clipped and shaved, rats were sacrificed by exsanguination under ether anesthesia. Abdominal and dorsal skin was removed using a scalpel and dissection scissors. A few pieces of skin were stored in liquid nitrogen for extraction of total RNA. The skin was minced, mixed with five volumes of ice-cold 4-(2-hydroxyethyl)-1-piperazineethanesulfonic acid (HEPES) buffer (50 mM, pH 7.4) containing 0.15 M KCl, and homogenized using a Polytron (Kinematica, Lucerne, Switzerland) on ice. Whole homogenate was filtered through a funnel containing buffer-soaked cotton wool. After centrifugation of the skin homogenate at 9000g for 20 min at 4 °C, the supernatant fraction (S9) was obtained. Protein content was determined by the method described by Bradford using bovine serum albumin (BSA) as standard. The skin S9 was stored at −80 °C until use.
(§1) Hydrolysis of PNPA, PNPB, and caproyl-PL were performed in S9 and microsomal fractions of rat liver, testis, kidney and skin. Tissue samples were diluted with 50 mM HEPES (pH 7.4) buffer at appropriate protein concentrations and preincubated for 5 min at 37 °C. The hydrolysis reaction was initiated by the addition of test compounds dissolved in dimethyl sulfoxide (DMSO). The final concentration of DMSO was less than 0.5%, which has no effect on hydrolytic activity. The rate of hydrolysis of PNPA and PNPB (final concentrations 15–500 μM) was determined by the initial linear increase in absorbance of p-nitrophenol at 405 nm (V-530, JASCO Co., Tokyo, Japan).
For the hydrolysis of caproyl-PL, the reaction was terminated by addition of 5 mL ethylacetate. After extraction of PL, as previously described, stereoselective determination was carried out using high-performance liquid chromatography (HPLC).

[3] = Nonenzymatic hydrolysis of caproyl-PL to PL in buffer; assay type: physicochemical
Experimental: Hydrolysis was greater under basic buffer conditions […]. […] The hydrolysis of caproyl-PL was <0.05% during the sampling period (1 h) at pH 6.8 in PBS containing 3% BSA.

[4] = for Permeated amount after 12 h: labelled species found in receptor fluid
Experimental: as §3, §4

[5] = cited from earlier work
[6] = Hydrolysis in rat testis microsomes; assay type: in vitro ADME; conditions: pH 7.4; for Km: testis microsomes 10 μg/mL for PNPA, 5 μg/mL for PNPB; for Vmax: testis microsomes
Experimental: (§2) The excised liver, kidney, and testis were washed with ice-cold 0.15 M KCl, and finely minced using scissors. Minced tissues were homogenized with 3 volumes of 50 mM HEPES buffer (pH 7.4) containing 0.15 M KCl in a Potter–Elvehjem glass homogenizer equipped with a Teflon pestle under ice-cold conditions. Homogenates (25% wet w/v) were centrifuged at 9000g for 20 min at 4 °C, to give the S9 fraction. S9 fraction was further centrifuged at 100,000g for 1 h at 4 °C. The resulting pellets were resuspended in 50 mM HEPES buffer (pH 7.4) containing 0.15 M KCl to prepare the microsomal fraction. Protein concentrations were determined by the method of Bradford using BSA as standard. S9 and the microsomal fraction were stored at −80 °C until use.
as §1

[7] = Hydrolysis in rat kidney microsomes; assay type: in vitro ADME; conditions: pH 7.4; for Vmax: kidney microsomes; for Km: kidney microsomes 10 μg/mL
Experimental: as §2, §1

[8] = Hydrolysis in rat liver microsomes; assay type: in vitro ADME; conditions: pH 7.4; for Vmax: liver microsomes; for Km: liver microsomes 20 μg/mL for PNPA, 10 μg/mL for PNPB
Experimental: as §2, §1

esterases of rat skin S9 = assay: Native PAGE esterase activity staining of rat skin S9 with 1-naphthylacetate; assay type: biochemical; conditions: native PAGE stained with 1-naphthylacetate
[9] = after application of caproyl-PL, labelled species, stripped skin
[10] = after application of caproyl-PL, total, stripped skin
[11] = after application of caproyl-PL, full-thickness skin, n = 6
[12] = after application of caproyl-PL, labelled species, full-thickness skin
[13] = after application of caproyl-PL, total of caproyl-PL and PL, full-thickness skin
[14] = caproyl-PL applied to full-thickness skin
[15] = after application of caproyl-PL, labelled species
[16] = after application of caproyl-PL, labelled species, full-thickness skin with BNPP
[17] = after application of caproyl-PL, total, full-thickness skin with BNPP
[18] = after application of PL, stripped skin
[19] = after application of PL, full-thickness skin
[20] = after application of PL, full-thickness skin with BNPP
[21] = hydrolysis, skin S9 300 μg/mL, 50 mM HEPES pH 7.4

Compound: O=[N+]([O-])c1ccc(OP(=O)(O)Oc2ccc([N+](=O)[O-])cc2)cc1 [BNPP, bis-p-nitrophenyl phosphate]
PL conversion from caproyl-PL after treatment with BNPP ([1]; 2 mM BNPP on receiver side for 1 h, full-thickness skin): markedly decreased

Compound: CCCCCC(=O)OC(CNC(C)C)COc1cccc2ccccc12.Cl (stereo not drawn) [Caproyl-PL, O-caproyl-PL hydrochloride]
Steady-state flux and Kp values of intact caproyl-PL in stripped skin relative to full-thickness skin (greater) (after application of caproyl-PL): 6 fold
Lag time [9]: 4.7 ± 1.7 h
Permeated amount after 12 h [9]: 12 ± 13 nmol
Skin concentration at 12 h [9]: 3,200 ± 580 nmol/g tissue
Steady state flux [9]: 2.4 ± 0.98 nmol/h
Skin concentration at 12 h (after application of caproyl-PL, labelled species, stripped skin, listed as caproyl-PL): 3200 ± 580 nmol/g tissue
Permeated amount after 12 h, Total (after application of caproyl-PL, total of caproyl-PL and PL, stripped skin): 200 ± 50 nmol
Lag time, Total [10]: 3.6 ± 0.43 h
Skin concentration at 12 h, Total [10]: 4,100 ± 600 nmol/g tissue
Steady state flux, Total [10]: 23 ± 5.5 nmol/h
Permeation clearance from viable skin to receptor fluid (calculated from steady-state flux and cutaneous concentration in stripped skin): 0.75 mg tissue/h
Concentration of caproyl-PL in stripped skin relative to Km value (higher) (vs Km in skin S9): 160 fold
Vmax ([2]; hydrolysis of caproyl-PL in rat skin S9): 9.24 ± 2.95 nmol/min/mg S9 protein
Km ([2]; hydrolysis of caproyl-PL in rat skin S9, read-out: Km value): 19.7 ± 5.36 µM
Hydrolysis in skin S9 relative to liver microsomes (slower) [2]: 20 fold
Nonenzymatic hydrolysis of caproyl-PL to PL ([3]; in 12 h, pH 4.0 acetate buffer): < 0.1%
Nonenzymatic hydrolysis of caproyl-PL ([3]; sampling period 1 h, pH 6.8 PBS containing 3% BSA): < 0.05%
Skin concentration of caproyl-PL relative to PL (higher) ([4]; 12 h after dosing caproyl-PL, full-thickness skin): 3.5 fold
Permeated amount after 12 h [4, 11]: 1.7 ± 1.4 nmol
Lag time [4, 12]: 7.0 ± 0.78 h
Skin concentration at 12 h [4, 12]: 1,900 ± 630 nmol/g tissue
Steady state flux [4, 12]: 0.40 ± 0.28 nmol/h
Skin concentration at 12 h ([4]; after application of caproyl-PL, labelled species, full-thickness skin, listed as caproyl-PL): 1900 ± 630 nmol/g tissue
Lag time, Total [4, 13]: 4.9 h and 4.9 ± 1.1 h
Permeated amount after 12 h, Total [4, 13]: 140 ± 33 nmol
Skin concentration at 12 h, Total [4, 13]: 2,400 ± 780 nmol/g tissue
Steady state flux, Total [4, 13]: 20 ± 6.1 nmol/h
Predicted concentration of caproyl-PL in viable epidermis and dermis ([4]; after application to full-thickness skin, estimated from flux and permeation clearance): about 500 nmol/g tissue
Dose retained in the stratum corneum [4, 14]: 75%
Dose transferred into viable skin [4, 14]: 25%
Predicted concentration in viable epidermis and dermis relative to Km value (higher) ([4]; full-thickness skin): 25 fold
Permeated amount after 12 h [1, 15]: 3.9 ± 3.4 nmol
Lag time [1, 16]: 8.3 ± 1.2 h
Skin concentration at 12 h [1, 16]: 2,100 ± 220 nmol/g tissue
Steady state flux [1, 16]: 0.83 ± 0.65 nmol/h
Lag time, Total [1, 17]: 6.4 ± 0.92 h
Permeated amount after 12 h, Total [1, 17]: 25 ± 21 nmol
Skin concentration at 12 h, Total [1, 17]: 2,200 ± 230 nmol/g tissue
Steady state flux, Total [1, 17]: 4.1 ± 3.1 nmol/h
Permeated amount, steady state flux and Kp value of intact caproyl-PL, increase by treatment with BNPP ([1]; full-thickness skin with vs without BNPP): 2 fold
log PC ([5]; between 1-octanol and pH 4.0 phosphate buffer, method and reference not given): 2.3
pKa ([5]; stated in discussion, method and reference not given): 9.1
Constant concentration in donor compartment (suspension) ([5]; suspension in pH 4.0 acetate buffer): 6.4 mM

Compound: CC(=O)Oc1ccc([N+](=O)[O-])cc1 [PNPA, p-nitrophenylacetate]
Vmax [2, 21]: 188 ± 30.3 nmol/min/mg protein
Km ([2]; rat, skin S9 fraction, hydrolysis, skin S9 300 μg/mL, 50 mM HEPES pH 7.4, 37 °C, mean ± S.D. (n = 3/4), read-out: Km): 55.5 ± 8.18 µM
Hydrolysis in skin S9 relative to liver microsomes (slower) [2]: around 20 fold
Vmax in skin S9 relative to liver microsomes (smaller) [2]: 19 fold
Vmax/Km in skin S9 relative to liver microsomes (smaller) [2]: 21 fold
Km ([6]; male, rat): 34.6 ± 1.27 µM
Vmax [6]: 1,606 ± 333 nmol/min/mg protein
Vmax [7]: 2,432 ± 497 nmol/min/mg protein
Km ([7]; rat): 268 ± 83.8 µM
Vmax [8]: 3,570 ± 810 nmol/min/mg protein
Km ([8]; rat): 57 ± 18.2 µM

Compound: CCN(CC)C(C)CN1c2ccccc2Sc2ccccc21 (stereo not drawn) [ethopropazine]
Inhibition of formation of esterase bands of skin S9 (esterases of rat skin S9): not inhibited

The next lines start with results.

Amount permeated after 12 h [18]: 17,000 ± 3,600 nmol
Lag time [18]: 1.4 ± 0.36 h
Skin concentration at 12 h [18]: 6,900 ± 3,700 nmol/g tissue
Lag time [9]: 3.6 ± 0.38 h
Permeated amount after 12 h [9]: 190 ± 55 nmol
Skin concentration at 12 h [9]: 870 ± 44 nmol/g tissue
Steady state flux [9]: 22 ± 6.4 nmol/h
Lag time [4, 19]: 1.5 ± 0.56 h
Skin concentration at 12 h [4, 19]: 9,400 ± 380 nmol/g tissue
Steady state flux [4, 19]: 240 ± 94 nmol/h
Amount permeated after 12 h ([4]; after application of PL, full-thickness skin, n = 6): 2,600 ± 970 nmol
Permeated amount after 12 h [4, 11]: 140 ± 35 nmol
Lag time [4, 12]: 4.9 ± 1.1 h
Skin concentration at 12 h [4, 12]: 550 ± 120 nmol/g tissue
Steady state flux [4, 12]: 20 ± 6.2 nmol/h
Amount permeated after 12 h [1, 20]: 2,600 ± 990 nmol
Lag time [1, 20]: 0.84 ± 0.24 h
Skin concentration at 12 h [1, 20]: 9,900 ± 590 nmol/g tissue
Steady state flux [1, 20]: 240 ± 87 nmol/h
Permeated amount after 12 h [1, 15]: 21 ± 18 nmol
Lag time [1, 16]: 6.3 ± 0.93 h
Skin concentration at 12 h [1, 16]: 130 ± 7.7 nmol/g tissue
Steady state flux [1, 16]: 3.5 ± 2.6 nmol/h
Compound: CC(C)NCC(O)COc1cccc2ccccc12 (stereo not drawn) [PL, propranolol]

Km ([2]; hydrolysis, skin S9 300 μg/mL, 50 mM HEPES pH 7.4, 37 °C, mean ± S.D. (n = 3/4), read-out: Km): 97.1 ± 30.2 µM
Hydrolysis in skin S9 relative to liver microsomes (slower) [2]: around 20 fold
Vmax in skin S9 relative to liver microsomes (smaller) [2]: 9 fold
Vmax/Km in skin S9 relative to liver microsomes (smaller) [2]: 24 fold
Km [6]: 63.4 ± 13.9 µM
Km [7]: 97 ± 16.6 µM
Km [8]: 37.1 ± 9.42 µM
Compound: CCCC(=O)Oc1ccc([N+](=O)[O-])cc1 [PNPB, p-nitrophenylbutyrate]
Vmax [2, 21]: 460 ± 127 nmol/min/mg protein
Vmax [6]: 2,978 ± 398 nmol/min/mg protein
Vmax [7]: 994 ± 286 nmol/min/mg protein
Vmax [8]: 4,220 ± 521 nmol/min/mg protein
